Results reported in patent US20090227607A1, “DEAZAPURINES USEFUL AS INHIBITORS OF JANUS KINASES” (priority 2006, published 2009).
pKi: −log10 of the molar value.

Assays:
[1] = molecular target: JAK-2 enzyme (Homo sapiens, UniProt O60674); test: JAK2 Inhibition Assay; assay type: biochemical; conditions: 15 μM poly(Glu)4Tyr, 12 μM ATP, 25° C.
Method in brief: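 JAK2 kinase in HEPES pH 7.4 buffer with MgCl2, DTT, NaCl and BSA; final 15 μM poly(Glu)4Tyr and 12 μM [33P]ATP. Enzyme added to start, 20 min at 25 °C, TCA stop, filter capture and scintillation count of 33P incorporation; Ki values.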

[2] = molecular target: T1, JAK3 (Homo sapiens, UniProt P52333); test: JAK3 Inhibition Assay; assay type: biochemical; conditions: 1 μM poly(Glu)4Tyr, 5 μM ATP, 1 nM JAK3, 25° C.; read-out: JAK3 enzyme inhibition data (Ki)
T1 sequence (P52333 1-1124): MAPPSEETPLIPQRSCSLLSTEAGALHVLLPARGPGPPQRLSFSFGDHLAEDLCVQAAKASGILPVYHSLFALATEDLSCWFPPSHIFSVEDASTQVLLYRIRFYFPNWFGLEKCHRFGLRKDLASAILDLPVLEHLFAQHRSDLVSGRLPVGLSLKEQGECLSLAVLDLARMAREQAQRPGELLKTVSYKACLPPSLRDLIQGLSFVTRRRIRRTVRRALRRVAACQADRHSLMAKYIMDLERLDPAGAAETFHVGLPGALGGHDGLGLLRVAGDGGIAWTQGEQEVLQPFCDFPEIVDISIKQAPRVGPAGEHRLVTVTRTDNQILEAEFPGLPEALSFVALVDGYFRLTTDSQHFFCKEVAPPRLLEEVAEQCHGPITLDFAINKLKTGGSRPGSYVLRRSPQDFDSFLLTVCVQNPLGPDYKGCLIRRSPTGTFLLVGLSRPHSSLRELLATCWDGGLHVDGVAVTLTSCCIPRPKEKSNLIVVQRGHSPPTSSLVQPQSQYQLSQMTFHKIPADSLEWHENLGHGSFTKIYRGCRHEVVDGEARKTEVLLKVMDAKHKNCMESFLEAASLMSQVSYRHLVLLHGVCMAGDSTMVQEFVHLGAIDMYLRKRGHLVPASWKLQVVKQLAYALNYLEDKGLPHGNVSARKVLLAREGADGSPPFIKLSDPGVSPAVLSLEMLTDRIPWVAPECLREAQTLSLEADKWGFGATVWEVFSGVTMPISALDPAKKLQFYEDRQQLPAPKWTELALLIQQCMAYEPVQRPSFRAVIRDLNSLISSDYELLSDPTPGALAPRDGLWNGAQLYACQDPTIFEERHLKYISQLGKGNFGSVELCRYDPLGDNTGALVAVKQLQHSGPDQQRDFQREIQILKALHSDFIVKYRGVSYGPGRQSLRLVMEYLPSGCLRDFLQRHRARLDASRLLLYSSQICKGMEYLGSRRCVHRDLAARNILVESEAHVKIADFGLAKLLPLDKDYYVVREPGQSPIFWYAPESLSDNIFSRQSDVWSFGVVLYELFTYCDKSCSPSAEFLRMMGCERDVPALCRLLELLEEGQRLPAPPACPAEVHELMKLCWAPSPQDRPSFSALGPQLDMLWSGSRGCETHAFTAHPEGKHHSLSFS
Method in brief: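 Radiometric JAK3 (1 nM) reaction with 5 μM [33P]ATP and 1 μM poly(Glu)4Tyr in HEPES pH 7.4 buffer, run for 20 min at 25 °C. Reactions were stopped with TCA and filter-captured, and 33P incorporation was counted; values reported as Ki.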

Chain of JAK-2 enzyme (O60674 whole entry, species assumed): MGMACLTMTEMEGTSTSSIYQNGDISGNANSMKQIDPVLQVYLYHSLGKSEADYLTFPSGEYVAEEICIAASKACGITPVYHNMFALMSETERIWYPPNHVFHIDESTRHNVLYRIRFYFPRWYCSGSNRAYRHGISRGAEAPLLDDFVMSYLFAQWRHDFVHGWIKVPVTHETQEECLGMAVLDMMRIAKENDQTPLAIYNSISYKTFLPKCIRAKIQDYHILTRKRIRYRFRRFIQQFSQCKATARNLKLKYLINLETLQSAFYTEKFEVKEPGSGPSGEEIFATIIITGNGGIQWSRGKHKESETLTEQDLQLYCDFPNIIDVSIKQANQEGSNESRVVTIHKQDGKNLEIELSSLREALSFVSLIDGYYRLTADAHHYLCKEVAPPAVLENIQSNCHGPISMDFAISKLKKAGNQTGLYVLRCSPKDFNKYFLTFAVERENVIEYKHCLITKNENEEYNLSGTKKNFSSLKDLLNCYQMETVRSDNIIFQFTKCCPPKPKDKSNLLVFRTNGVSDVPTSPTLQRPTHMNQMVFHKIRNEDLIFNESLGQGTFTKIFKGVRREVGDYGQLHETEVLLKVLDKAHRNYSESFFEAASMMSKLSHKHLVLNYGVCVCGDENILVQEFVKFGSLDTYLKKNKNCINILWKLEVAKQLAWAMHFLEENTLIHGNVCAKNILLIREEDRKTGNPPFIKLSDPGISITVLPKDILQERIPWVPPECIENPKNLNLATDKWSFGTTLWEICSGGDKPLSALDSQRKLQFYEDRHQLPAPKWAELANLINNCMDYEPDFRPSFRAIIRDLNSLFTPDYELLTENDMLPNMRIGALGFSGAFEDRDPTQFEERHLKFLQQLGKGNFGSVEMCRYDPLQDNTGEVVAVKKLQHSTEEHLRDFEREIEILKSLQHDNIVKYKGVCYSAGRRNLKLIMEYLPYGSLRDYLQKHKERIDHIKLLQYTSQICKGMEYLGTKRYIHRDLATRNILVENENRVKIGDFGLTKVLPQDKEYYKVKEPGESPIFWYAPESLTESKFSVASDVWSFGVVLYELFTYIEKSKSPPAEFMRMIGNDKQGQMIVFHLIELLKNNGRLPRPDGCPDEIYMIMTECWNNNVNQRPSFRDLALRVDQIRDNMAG

Compound | pKi [1] | pKi [2]
CCCNC(=O)C(C)n1cc(-c2ncnc3[nH]ccc23)cn1 (stereo not shown) [Compound 90] | 6.30 to 7.00 | > 7.00
CCCN(CCC)C(=O)c1cc(-c2ncnc3[nH]ccc23)c[nH]1 [Compound 26] | > 7.00 | > 7.00
CC(C)CNC(=O)c1cc(-c2ncnc3[nH]ccc23)c[nH]1 [Compound 9] | > 7.00 | > 7.00
N#CCCN(CC1CCCO1)C(=O)c1cc(-c2ncnc3[nH]ccc23)c[nH]1 (stereo not shown) [Compound 136] | > 7.00 | 6.30 to 7.00
C[C@H](O)CNC(=O)c1cc(-c2ncnc3[nH]ccc23)c[nH]1 [Compound 140] | > 7.00 | 6.30 to 7.00
N#CCCN(Cc1ccco1)C(=O)c1cc(-c2ncnc3[nH]ccc23)c[nH]1 [Compound 135] | > 7.00 | > 7.00
CCN(CCC#N)C(=O)c1cc(-c2ncnc3[nH]ccc23)c[nH]1 [Compound 16] | > 7.00 | > 7.00
CC(C(=O)NCc1cccn1C)n1cc(-c2ncnc3[nH]ccc23)cn1 (stereo not shown) [Compound 89] | > 7.00 | 6.30 to 7.00
Cc1c[nH]c2ncnc(-c3c[nH]c(C(=O)N4C(C)C=CC4C)c3)c12 (stereo not shown) [Compound 204] | > 7.00 | 6.30 to 7.00
FC(F)(F)CN(Cc1coc(-c2ncnc3[nH]ccc23)c1)CC1CC1 [Compound 131] | > 7.00 | > 7.00
CCN(C(=O)CC(C)C)c1nc(-c2ncnc3[nH]ccc23)cs1 [Compound 104] | > 7.00 | > 7.00
C=CCN(CC=C)C(=O)c1cc(-c2ncnc3[nH]ccc23)co1 [Compound 245] | > 7.00 | 6.30 to 7.00
c1nc(-c2ccsc2)c2cc[nH]c2n1 [Compound 2] | 6.30 to 7.00 | 6.30 to 7.00
CSCCNC(=O)C(C)n1cc(-c2ncnc3[nH]ccc23)cn1 (stereo not shown) [Compound 84] | 6.30 to 7.00 | 6.30 to 7.00
O=C(Nc1nc(-c2ncnc3[nH]ccc23)cs1)C1CCN(C(=O)c2ccccc2)CC1 [Compound 173] | > 7.00 | > 7.00
Cn1cc(-c2ncnc3[nH]ccc23)cc1C(=O)NCC(F)(F)F [Compound 235] | > 7.00 | > 7.00
O=C(NCC(F)F)c1cc(-c2ncnc3[nH]ccc23)c[nH]1 [Compound 10] | > 7.00 | > 7.00
CC(C)CN(CCC(F)(F)F)C(=O)c1cc(-c2ncnc3[nH]cc(Cl)c23)c[nH]1 [Compound 244] | > 7.00 | 6.30 to 7.00
O=C(NC1CC1)c1cc(-c2ncnc3[nH]ccc23)c[nH]1 [Compound 12] | > 7.00 | 6.30 to 7.00
CCN(CC)C(=O)C(C)n1cc(-c2ncnc3[nH]ccc23)cn1 (stereo not shown) [Compound 88] | 6.30 to 7.00 | > 7.00
O=C(CCC(=O)C1CC1)Nc1nc(-c2ncnc3[nH]ccc23)cs1 [Compound 170] | > 7.00 | 6.30 to 7.00
CN(CCC#N)C(=O)c1cc(-c2ncnc3[nH]ccc23)c[nH]1 [Compound 23] | > 7.00 | > 7.00
O=C(CCC1CCCC1)Nc1nc(-c2ncnc3[nH]ccc23)cs1 [Compound 67] | > 7.00 | > 7.00
